Assay results published in patent US20220119354A1, “DIAMINO-SUBSTITUTED PYRIDINES AND PYRIMIDINES AS HERBICIDES” (FMC Corporation, priority 2019, published 2022).

Key:
Format in all cases: in vivo
[1] = system: barnyardgrass (Echinochloa crus-galli); assay: Test A preemergence, barnyardgrass; settings: 0 to 100 scale
How it was run: (§1)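 0–100 visual control rating, ~10 d post-treatment, greenhouse. Pre = directed soil spray on seeded loam/sand; post = spray at 1–2 leaf stage. Surfactant-containing solvent formulation.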

[2] = system: kochia (Kochia scoparia); assay: Test A preemergence, kochia; settings: 0 to 100 scale
How it was run: as §1

[3] = system: ragweed (common ragweed, Ambrosia elatior); assay: Test A preemergence, ragweed; settings: 0 to 100 scale
How it was run: as §1

[4] = system: ryegrass, Italian (Lolium multiflorum); assay: Test A preemergence, Italian ryegrass; settings: 0 to 100 scale
How it was run: as §1

[5] = system: foxtail, green (Setaria viridis); assay: Test A preemergence, green foxtail; settings: 0 to 100 scale
Description: (§2) Seeds of plant species selected from barnyardgrass (Echinochloa crus-galli), kochia (Kochia scoparia), ragweed (common ragweed, Ambrosia elatior), ryegrass, Italian (Lolium multiflorum), foxtail, giant (Setaria faberii), foxtail, green (Setaria viridis), and pigweed (Amaranthus retroflexus) were planted into a blend of loam soil and sand and treated preemergence with a directed soil spray using test chemicals formulated in a non-phytotoxic solvent mixture which included a surfactant.
(§3) At the same time, plants selected from these weed species and also wheat (Triticum aestivum), corn (Zea mays), blackgrass (Alopecurus myosuroides), and galium (catchweed bedstraw, Galium aparine) were planted in pots containing the same blend of loam soil and sand and treated with postemergence applications of test chemicals formulated in the same manner. Plants ranged in height from 2 to 10 cm and were in the one- to two-leaf stage for the postemergence treatment. Treated plants and untreated controls were maintained in a greenhouse for approximately 10 d, after which time all treated plants were compared to untreated controls and visually evaluated for injury. Plant response ratings, summarized in Table A, are based on a 0 to 100 scale where 0 is no effect and 100 is complete control. A dash (-) response means no test result.

[6] = system: pigweed (Amaranthus retroflexus); assay: Test A preemergence, pigweed; settings: 0 to 100 scale
How it was run: as §1

[7] = system: barnyardgrass (Echinochloa crus-galli); assay: Test A postemergence, barnyardgrass; settings: 0 to 100 scale
How it was run: as §1

[8] = system: kochia (Kochia scoparia); assay: Test A postemergence, kochia; settings: 0 to 100 scale
How it was run: as §1

[9] = system: ragweed (common ragweed, Ambrosia elatior); assay: Test A postemergence, ragweed; settings: 0 to 100 scale
How it was run: as §1

[10] = system: ryegrass, Italian (Lolium multiflorum); assay: Test A postemergence, Italian ryegrass; settings: 0 to 100 scale
How it was run: as §1

[11] = system: foxtail, green (Setaria viridis); assay: Test A postemergence, green foxtail; settings: 0 to 100 scale
Description: as §2, §3

[12] = system: pigweed (Amaranthus retroflexus); assay: Test A postemergence, pigweed; settings: 0 to 100 scale
How it was run: as §1

[13] = system: wheat (Triticum aestivum); assay: Test A postemergence, wheat; settings: 0 to 100 scale
How it was run: as §1

[14] = system: corn (Zea mays); assay: Test A postemergence, corn; settings: 0 to 100 scale
How it was run: as §1

[15] = system: blackgrass (Alopecurus myosuroides); assay: Test A postemergence, blackgrass; settings: 0 to 100 scale
How it was run: as §1

[16] = system: galium (catchweed bedstraw, Galium aparine); assay: Test A postemergence, galium; settings: 0 to 100 scale
How it was run: as §1

[17] = system: rice (Oryza sativa); assay: Test B flooded paddy test, rice; settings: Flood, 250 g ai/ha, applied to paddy water, 2-leaf stage, visual evaluation after 13 to 15 d
How it was run: (§4)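 Application was made into paddy water of pots flooded 3 cm deep at treatment, with seedlings at the 2-leaf stage. That flood level was kept throughout, and plants stayed under glass 13 to 15 d before visual assessment on a 0–100 control scale.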

[18] = system: sedge, umbrella (small-flower umbrella sedge, Cyperus difformis); assay: Test B flooded paddy test, umbrella sedge; settings: Flood, 250 g ai/ha, applied to paddy water, 2-leaf stage, visual evaluation after 13 to 15 d
How it was run: as §4

[19] = system: ducksalad (Heteranthera limosa); assay: Test B flooded paddy test, ducksalad; settings: Flood, 250 g ai/ha, applied to paddy water, 2-leaf stage, visual evaluation after 13 to 15 d
How it was run: as §4

[20] = system: barnyardgrass (Echinochloa crus-galli); assay: Test B flooded paddy test, barnyardgrass; settings: Flood, 250 g ai/ha, applied to paddy water, 2-leaf stage, visual evaluation after 13 to 15 d
How it was run: as §4

CC(CCc1ccccc1)Nc1ncc(C(F)(F)F)c(N)n1 (stereo not drawn) [Compound 23]
0: Plant response rating, Barnyardgrass ([1]; 125 g ai/ha) | Plant response rating, Barnyardgrass ([1]; 500 g ai/ha) | Plant response rating, Kochia ([2]; 125 g ai/ha) | Plant response rating, Kochia ([2]; 500 g ai/ha) | Plant response rating, Ragweed ([3]; 125 g ai/ha) | Plant response rating, Ragweed ([3]; 500 g ai/ha) | Plant response rating, Ryegrass, Italian ([4]; 125 g ai/ha) | Plant response rating, Ryegrass, Italian ([4]; 500 g ai/ha) | Plant response rating, Foxtail, Green ([5]; 125 g ai/ha) | Plant response rating, Foxtail, Green ([5]; 500 g ai/ha) | Plant response rating, Pigweed ([6]; 125 g ai/ha) | Plant response rating, Barnyardgrass ([7]; 125 g ai/ha) | Plant response rating, Barnyardgrass ([7]; 500 g ai/ha) | Plant response rating, Kochia ([8]; 125 g ai/ha) | Plant response rating, Kochia ([8]; 500 g ai/ha) | Plant response rating, Ragweed ([9]; 125 g ai/ha) | Plant response rating, Ragweed ([9]; 500 g ai/ha) | Plant response rating, Ryegrass, Italian ([10]; 125 g ai/ha) | Plant response rating, Ryegrass, Italian ([10]; 500 g ai/ha) | Plant response rating, Foxtail, Green ([11]; 125 g ai/ha) | Plant response rating, Foxtail, Green ([11]; 500 g ai/ha) | Plant response rating, Pigweed ([12]; 125 g ai/ha) | Plant response rating, Pigweed ([12]; 500 g ai/ha) | Plant response rating, Wheat ([13]; 125 g ai/ha) | Plant response rating, Wheat ([13]; 500 g ai/ha) | Plant response rating, Corn ([14]; 125 g ai/ha) | Plant response rating, Corn ([14]; 500 g ai/ha) | Plant response rating, Blackgrass ([15]; 125 g ai/ha) | Plant response rating, Blackgrass ([15]; 500 g ai/ha) | Plant response rating, Galium ([16]; 125 g ai/ha) | Plant response rating, Galium ([16]; 500 g ai/ha) | Plant response rating, Rice (0 to 100 scale, 0 is no effect, 100 is complete control) [17] | Plant response rating, Sedge, Umbrella (0 to 100 scale, 0 is no effect, 100 is complete control) [18] | Plant response rating, Ducksalad (0 to 100 scale, 0 is no effect, 100 is complete control) [19] | Plant response rating, Barnyardgrass (0 to 100 scale, 0 is no effect, 100 is complete control) [20]
50: Plant response rating, Pigweed ([6]; 500 g ai/ha)
